Series [1] has as its system PC-1 cells. As to the kind of experiment: MTT cell growth and viability assay, PC-1. In kind it is cell-based, hamster. As to conditions: different concentrations of Asc-S, 24 hours. On the procedure: Cell Growth and Vitality: The effect of Asc-S on PANC-1 and PC-1 cell growth and viability was evaluated by 3-(4,5-dimethylthiazol-2yl)-2,5-diphenyl-tetrazoliumbromide (MTT) (Sigma Chemical Co., St. Louis, Md.) assay and the details of the procedure are as described earlier (Naidu et al., 1993a) PANC-1 cells were seeded at 2.5×10^4 viable cells well in 0.1 ml MEM supplemented with 10% FBS or serum free MEM with 15 nM human recombinant IGF-1 in 96 multiwell tissue culture plates. The following day when the cells were nearly confluent, the medium was replaced with fresh medium and 50, 75, 100, 125, 150, 175 and 200 μM Asc-S were added and incubated in a CO2 incubator at 37° C. for 24 hours with respective untreated controls.
The effect of Asc-S on the proliferation of PC-1 and PANC-1 pancreatic tumor cells was studied using MTT assay. The expression of IGF1-R was analyzed by Western blot analysis, using polyclonal IGF1-R antibody (Upstate Biotech). Apoptosis was assessed by in situ hybridization using TUNEL reaction. […] This was associated with significant decrease in IGF1-R expression and increased apoptotic rate as compared to the control. Statistical analysis on the MTT assay was done using Student's T-test.

For series [2], the system named is c-Src. Kind of series: c-Src expression by Western immunoblot, T98G. In kind it is cell-based, human. As to conditions: 100 μM, 24 h. On the procedure:
The Src oncogene product was the first to be identified as tyrosine kinase. Today the “Src-family” of non-receptor tyrosine kinases is known to be represented in every cell type and signaling system. […] This observation is further corroborated with the data on the dose and time dependent inhibition of IGF1-R described herein.
The T98G cells are exponentially grown in MEM with 10 nM human recombinant IGF-1 (Bachem California, Torrance, Calif.) or MEM with 10% FBS. The cells were disrupted in cold lysis buffer (10 μM terra sodium pyrophosphate, 20 mM HEPES, 1% Triton X-100, 100 mM NaCl, 2 ug/ml aprotinin, 2 μg/ml leupeptin and 100 μg/ml of PMSF). The crude lysates were centrifuged and protein concentration was determined by using Pierce BCA Protein Assay kit. […] Rabbit anti-human polyclonal primary antibodies to c-Src (pp60^Src (aa403-421) (Upstate Biotechnology, Lake Placid, N.Y.) were incubated for one hour at room temperature in TBST and 1% nonfat milk. The blots were then washed and incubated with anti-rabbit horseradish peroxidase conjugated secondary antibody (Oncogene Science, Inc. Uniondale, N.Y.). Antigen bound to nitrocellulose membrane was detected with the ECL system (Amersham Corp., Arlington Heights, Ill.). FIG. 9A was a positive control for c-Src from A431 cell lysate, FIGS. 9B and C were untreated and 100 μM […] treated T98G cell lysates respectively.
Background: Immunoblotting shows a protein as a band on a membrane.

In series [3] the test system is OVCAR-3 and PANC-1 s.c. tumors. Kind of series: s.c. OVCAR-3 and PANC-1 tumors in BALB/c nude mice. In kind it is in vivo, mouse. As to conditions: 100 mg/Kg s.c. daily for two weeks. How it is done: The experimental approach is to test effect of Ascorbyl stearate (Asc-S) on the tumorigenicity of ovarian and pancreatic tumor cells. Procedures involve culturing OVCOR-3 (ovarian cancer cells) and PANC-1 (pancreatic cancer cells). When confluent, cells were trypsinized, washed and resuspended in sterile phosphate buffered solution ([…]) in a volume of 0.1 ml and injected s.c. above the hind leg of the mice. Two groups each for OVCOR-3 and PANC-1 tumor cells were established.
Asc-S is lipophilic compound. Asc-S was dissolved in a small volume of ethyl alcohol and then reconstituted in sterile normal saline. The final concentration of ethyl alcohol was ˜5%. At that concentration ethyl alcohol would not have any deleterious effect. […] The controls received […] of a mixture of 0.5:10 ethyl alcohol and sterile normal saline.
Group 1 is made up of OVCAR-3 cells plus Vehicle. A mixture of 0.5:10 of ethyl alcohol and normal saline was used as the vehicle. Group 2 is made up of OVCAR-3 cells plus Asc-S at a concentration of 100 mg/Kg was administered subcutaneously at the vicinity of the s.c. tumor one week prior to treatment with Asc-S. The Asc-S was distributed in a small volume of ethyl alcohol and then reconstituted into normal saline. […]
For the preliminary studies, six mice per group were used. […] The s.c. tumors were isolated, tumor sizes were measured and processed for pathological evaluation. […]

For series [4] the following is noted: mice; cited from earlier work.
Series [5] relates to rat astrocyte cells. As to the kind of experiment: Apoptosis by in situ TUNEL assay, rat astrocytes in primary culture. The series is classed as cell-based. The settings on record: 100 μM, 24 hours, vs untreated astrocytes. How it is done: Apoptosis by in situ TUNNEL assay: This experiment was designed to test the hypothesis that down regulation of IGF1-R facilitates apoptosis in T98G cells. […] In addition, to test whether Asc-S treatment induces apoptosis in normal cells, rat astrocyte cells in primary culture were treated with 100 μM Asc-S for 24 hours. […] The increased apoptosis in the Asc-S treated T98G cells is due to down regulation of IGF1-R.
In FIG. 10, apoptosis was evaluated by in situ immunohistochemical detection and quantification at a single cell level.

As to `CCCCCCCCCCCCCCCCCC(=O)OC[C@H](O)[C@H]1OC(=O)C(O)=C1O` [Asc-S, Ascorbyl stearate], in series [1], the “PC-1 cell proliferation (MTT assay)” value is given as “dose dependent inhibition of PC-1 cell proliferation”. Further, in series [2], the “c-Src expression, T98G cells” value is “did not affect”. Also, in series [3], the “apoptotic cells in s.c. tumors (pathological evaluation)” value is listed as “predominantly higher percentage of apoptotic cells” and the “decrease in the size of the tumors compared to untreated controls” value is 70%. Further, in series [4], the LD50 (in general, the dose at which mortality reaches 50%) is 25000 mg/kg. For the same compound, the “apoptotic rate (in situ TUNEL), rat astrocytes” value in series [5] is listed as “did not increase the apoptotic rate”.

The values above are taken from US6638974B1, “Ascorbyl esters for the treatment of cancer” (University of South Florida, priority 1999, dated 2003).
